The nature of the test: Binding affinity at Sigma receptor type 1, displacement of [3H](+)-pentazocine from guinea pig brain membranes. (In general: In a radioligand displacement assay an active substance lowers the binding of a labelled ligand.)

Usually Ki stands for a measure of affinity in units of concentration, obtained from inhibition or displacement. High values mean a looser hold on the target, low ones a stronger hold on the target. `C[C@@H]1[C@@H]2Cc3ccc(O)cc3[C@@]1(C)CCN2Cc1cccc(I)c1` [(2S,6S,11S)-3-(3-Iodo-benzyl)-6,11-dimethyl-1,2,3,4,5,6-hexahydro-2,6-methano-benzo[d]azocin-8-ol]: the affinity, expressed as Ki, was 27.2 nM. Next, `C[C@@H]1[C@@H]2Cc3ccc(O)cc3[C@@]1(C)CCN2Cc1ccccc1I` [(2S,6S,11S)-3-(2-Iodo-benzyl)-6,11-dimethyl-1,2,3,4,5,6-hexahydro-2,6-methano-benzo[d]azocin-8-ol]: 930 nM. `C[C@@H]1[C@@H]2Cc3ccc(O)cc3[C@@]1(C)CCN2Cc1ccc(I)cc1` [(2S,6S,11S)-3-(4-Iodo-benzyl)-6,11-dimethyl-1,2,3,4,5,6-hexahydro-2,6-methano-benzo[d]azocin-8-ol]: the Ki turned out to be 16.5 nM. Next, `COc1ccc(CN2CC[C@]3(C)c4cc(O)ccc4C[C@H]2[C@H]3C)cc1` [(2S,6S,11S)-3-(4-Methoxy-benzyl)-6,11-dimethyl-1,2,3,4,5,6-hexahydro-2,6-methano-benzo[d]azocin-8-ol]: 2.89 nM.

Consider `Cc1ccccc1CN1CC[C@]2(C)c3cc(O)ccc3C[C@H]1[C@H]2C` [(2S,6S,11S)-6,11-Dimethyl-3-(2-methyl-benzyl)-1,2,3,4,5,6-hexahydro-2,6-methano-benzo[d]azocin-8-ol], for which the Ki stood at 12.8 nM. In the case of `C[C@@H]1[C@@H]2Cc3ccc(O)cc3[C@@]1(C)CCN2Cc1ccc(Br)cc1` [(2S,6S,11S)-3-(4-Bromo-benzyl)-6,11-dimethyl-1,2,3,4,5,6-hexahydro-2,6-methano-benzo[d]azocin-8-ol], the Ki came to 3.11 nM. Next, `C[C@@H]1[C@@H]2Cc3ccc(O)cc3[C@@]1(C)CCN2Cc1ccc(N)cc1` [(2S,6S,11S)-3-(4-Amino-benzyl)-6,11-dimethyl-1,2,3,4,5,6-hexahydro-2,6-methano-benzo[d]azocin-8-ol]: 16.8 nM; `C[C@@H]1[C@@H]2Cc3ccc(O)cc3[C@@]1(C)CCN2Cc1ccccc1F` [(2S,6S,11S)-3-(2-Fluoro-benzyl)-6,11-dimethyl-1,2,3,4,5,6-hexahydro-2,6-methano-benzo[d]azocin-8-ol]: 1.45 nM. Take `C[C@@H]1[C@@H]2Cc3ccc(O)cc3[C@@]1(C)CCN2Cc1ccc(C(C)(C)C)cc1` [(2S,6S,11S)-3-(4-tert-Butyl-benzyl)-6,11-dimethyl-1,2,3,4,5,6-hexahydro-2,6-methano-benzo[d]azocin-8-ol]: the Ki was determined as 1070 nM. Next, `C[C@@H]1[C@@H]2Cc3ccc(O)cc3[C@@]1(C)CCN2Cc1ccc(C#N)cc1` [4-((2S,6S,11S)-8-Hydroxy-6,11-dimethyl-1,2,5,6-tetrahydro-4H-2,6-methano-benzo[d]azocin-3-ylmethyl)-benzonitrile]: 1.53 nM; `C[C@@H]1[C@@H]2Cc3ccc(O)cc3[C@@]1(C)CCN2Cc1ccc(Cl)cc1` [(2S,6S,11S)-3-(4-Chloro-benzyl)-6,11-dimethyl-1,2,3,4,5,6-hexahydro-2,6-methano-benzo[d]azocin-8-ol]: 2.37 nM. Next, `CC(=O)Nc1ccc(CN2CC[C@]3(C)c4cc(O)ccc4C[C@H]2[C@H]3C)cc1` [N-[4-((2S,6S,11S)-8-Hydroxy-6,11-dimethyl-1,2,5,6-tetrahydro-4H-2,6-methano-benzo[d]azocin-3-ylmethyl)-phenyl]-acetamide]: 47 nM.

In turn, `C[C@@H]1[C@@H]2Cc3ccc(O)cc3[C@@]1(C)CCN2Cc1ccc(C(F)(F)F)cc1` [(2S,6S,11S)-6,11-Dimethyl-3-(4-trifluoromethyl-benzyl)-1,2,3,4,5,6-hexahydro-2,6-methano-benzo[d]azocin-8-ol] gave an inhibition constant Ki of 20.5 nM. On to `C[C@@H]1[C@@H]2Cc3ccc(O)cc3[C@@]1(C)CCN2Cc1ccc(F)cc1` [(2S,6S,11S)-3-(4-Fluoro-benzyl)-6,11-dimethyl-1,2,3,4,5,6-hexahydro-2,6-methano-benzo[d]azocin-8-ol], for which affinity was put at a Ki of 0.97 nM.

Molecule `C[C@@H]1[C@@H]2Cc3ccc(O)cc3[C@@]1(C)CCN2Cc1ccc(I)c([N+](=O)[O-])c1` [(2S,6S,11S)-3-(4-Iodo-3-nitro-benzyl)-6,11-dimethyl-1,2,3,4,5,6-hexahydro-2,6-methano-benzo[d]azocin-8-ol] gave an inhibition constant Ki of 386 nM. In turn, `C[C@@H]1[C@@H]2Cc3ccc(O)cc3[C@@]1(C)CCN2Cc1ccc(N(C)C)cc1` [(2S,6S,11S)-3-(4-Dimethylamino-benzyl)-6,11-dimethyl-1,2,3,4,5,6-hexahydro-2,6-methano-benzo[d]azocin-8-ol] returned an inhibition constant (Ki) of 102 nM. Next, `C[C@@H]1[C@@H]2Cc3ccc(O)cc3[C@@]1(C)CCN2Cc1ccc([N+](=O)[O-])cc1` [(2S,6S,11S)-6,11-Dimethyl-3-(4-nitro-benzyl)-1,2,3,4,5,6-hexahydro-2,6-methano-benzo[d]azocin-8-ol]: 2.19 nM; `Cc1ccc(CN2CC[C@]3(C)c4cc(O)ccc4C[C@H]2[C@H]3C)cc1` [(2S,6S,11S)-6,11-Dimethyl-3-(4-methyl-benzyl)-1,2,3,4,5,6-hexahydro-2,6-methano-benzo[d]azocin-8-ol]: 2.08 nM.

(Values after BindingDB's records for doi:10.1021/jm00003a019 (Research Triangle Institute, 1995).)
